#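 Following 48 hours of exposure in 96-well plates, responses at five concentrations were used to interpolate endpoints linearly. GI50: concentration for 50% inhibition of growth.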 Active and inactive are the calls of the source. Cut-off read from the data, not from the text of the source: active = GI50 up to about 1.1 µM and inactive = higher.
# What was measured:
# Assay in all cases: NCI tumour cell line growth inhibition, 48 h
# A549 = tested on: A549
# SNB-75 = tested on: SNB-75
# UACC-257 = tested on: UACC-257
# SNB-19 = tested on: SNB-19
# UO-31 = tested on: UO-31
# HCT-116 = tested on: HCT-116
# MOLT-4 = tested on: MOLT-4
# HCT-15 = tested on: HCT-15
# DU-145 = tested on: DU-145
# K562 = tested on: K562
# MDA-MB-435 = tested on: MDA-MB-435
# OVCAR-4 = tested on: OVCAR-4
# M14 = tested on: M14
# PC-3 = tested on: PC-3
# Malme-3M = tested on: Malme-3M
# LOX IMVI = tested on: LOX IMVI
# SK-MEL-2 = tested on: SK-MEL-2
# SW-620 = tested on: SW-620
# SF-295 = tested on: SF-295
# CCRF-CEM = tested on: CCRF-CEM
# MDA-N = tested on: MDA-N
# Hs-578T = tested on: Hs-578T
# BT-549 = tested on: BT-549
# SK-MEL-28 = tested on: SK-MEL-28
# MCF7 = tested on: MCF7
# HOP-62 = tested on: HOP-62
# OVCAR-3 = tested on: OVCAR-3
# 786-0 = tested on: 786-0
# SF-268 = tested on: SF-268
# U-251 = tested on: U-251
# SF-539 = tested on: SF-539
# TK-10 = tested on: TK-10
# A498 = tested on: A498
# T47D = tested on: T47D
# KM12 = tested on: KM12
# CAKI-1 = tested on: CAKI-1
# NCI-H23 = tested on: NCI-H23
# NCI/ADR-RES = tested on: NCI/ADR-RES
# RPMI-8226 = tested on: RPMI-8226
# OVCAR-5 = tested on: OVCAR-5
# NCI-H226 = tested on: NCI-H226
# SK-MEL-5 = tested on: SK-MEL-5
# EKVX = tested on: EKVX
# SN12C = tested on: SN12C
# OVCAR-8 = tested on: OVCAR-8
# HL-60 = tested on: HL-60
# IGROV-1 = tested on: IGROV-1
# HT-29 = tested on: HT-29
# SR = tested on: SR
# RXF 393 = tested on: RXF 393
# NCI-H460 = tested on: NCI-H460
# SK-OV-3 = tested on: SK-OV-3
# MDA-MB-231 = tested on: MDA-MB-231
# UACC-62 = tested on: UACC-62
# COLO 205 = tested on: COLO 205
# HOP-92 = tested on: HOP-92
# ACHN = tested on: ACHN
# HCC 2998 = tested on: HCC 2998
# NCI-H522 = tested on: NCI-H522
smiles,measurement,setting,value
C(=C/CCCN1O[C@@H](CCCCCCCCc2cccnc2)[C@H]2CCC[C@H]21)/CCCCCCCCCc1cccnc1,GI50,A549,14.1 µM (inactive)
same,GI50,SNB-75,27.1 µM (inactive)
same,GI50,UACC-257,14.6 µM (inactive)
same,GI50,SNB-19,25.6 µM (inactive)
same,GI50,UO-31,19.4 µM (inactive)
same,GI50,HCT-116,16 µM (inactive)
same,GI50,MOLT-4,21.7 µM (inactive)
same,GI50,HCT-15,24.8 µM
same,GI50,DU-145,32.4 µM (inactive)
same,GI50,K562,11.1 µM (inactive)
same,GI50,MDA-MB-435,16.2 µM (inactive)
same,GI50,OVCAR-4,32.4 µM (inactive)
same,GI50,M14,24 µM (inactive)
same,GI50,PC-3,18.8 µM (inactive)
same,GI50,Malme-3M,15.4 µM (inactive)
same,GI50,LOX IMVI,12.7 µM (inactive)
same,GI50,SK-MEL-2,22.4 µM (inactive)
same,GI50,SW-620,31.3 µM (inactive)
same,GI50,SF-295,20 µM (inactive)
same,GI50,CCRF-CEM,15.7 µM (inactive)
same,GI50,MDA-N,24.1 µM (inactive)
same,GI50,Hs-578T,37.8 µM (inactive)
same,GI50,BT-549,33 µM (inactive)
same,GI50,SK-MEL-28,21.3 µM (inactive)
same,GI50,MCF7,15.7 µM (inactive)
same,GI50,HOP-62,20.8 µM (inactive)
same,GI50,OVCAR-3,17.1 µM (inactive)
same,GI50,786-0,18.7 µM (inactive)
same,GI50,SF-268,23.4 µM (inactive)
same,GI50,U-251,15.7 µM (inactive)
same,GI50,SF-539,18.1 µM (inactive)
same,GI50,TK-10,18.4 µM (inactive)
same,GI50,A498,22.1 µM (inactive)
same,GI50,T47D,20.7 µM (inactive)
same,GI50,KM12,18.5 µM (inactive)
same,GI50,CAKI-1,13.5 µM (inactive)
same,GI50,NCI-H23,16.6 µM (inactive)
same,GI50,NCI/ADR-RES,28.1 µM (inactive)
same,GI50,RPMI-8226,7.96 µM (inactive)
same,GI50,OVCAR-5,20 µM (inactive)
same,GI50,NCI-H226,16.4 µM (inactive)
same,GI50,SK-MEL-5,17.5 µM (inactive)
same,GI50,EKVX,4.48 µM (inactive)
same,GI50,SN12C,19.7 µM (inactive)
same,GI50,OVCAR-8,31.6 µM (inactive)
same,GI50,HL-60,5.22 µM (inactive)
same,GI50,IGROV-1,30.5 µM (inactive)
same,GI50,HT-29,21.9 µM (inactive)
same,GI50,SR,17.2 µM (inactive)
same,GI50,RXF 393,17.1 µM (inactive)
same,GI50,NCI-H460,17.3 µM (inactive)
same,GI50,SK-OV-3,19 µM (inactive)
same,GI50,MDA-MB-231,17.9 µM (inactive)
same,GI50,UACC-62,20.9 µM (inactive)
same,GI50,COLO 205,14.9 µM (inactive)
same,GI50,HOP-92,13.2 µM (inactive)
CCn1c(SCC(=O)NNC(=S)NC)nc2ccccc2c1=O,GI50,A549,88.9 µM (inactive)
same,GI50,SNB-75,> 100 µM (inactive)
same,GI50,UACC-257,> 100 µM (inactive)
same,GI50,SNB-19,> 100 µM (inactive)
same,GI50,UO-31,62.2 µM (inactive)
same,GI50,HCT-116,> 100 µM (inactive)
same,GI50,MOLT-4,> 100 µM (inactive)
same,GI50,HCT-15,> 100 µM
same,GI50,DU-145,> 100 µM (inactive)
same,GI50,K562,> 100 µM (inactive)
same,GI50,MDA-MB-435,> 100 µM (inactive)
same,GI50,OVCAR-4,76.4 µM (inactive)
same,GI50,M14,> 100 µM (inactive)
same,GI50,PC-3,96.8 µM (inactive)
same,GI50,Malme-3M,> 100 µM (inactive)
same,GI50,LOX IMVI,> 100 µM (inactive)
same,GI50,SK-MEL-2,> 100 µM (inactive)
same,GI50,SW-620,> 100 µM (inactive)
same,GI50,SF-295,> 100 µM (inactive)
same,GI50,CCRF-CEM,> 100 µM (inactive)
same,GI50,MDA-N,> 100 µM (inactive)
same,GI50,Hs-578T,> 100 µM (inactive)
same,GI50,BT-549,68.1 µM (inactive)
same,GI50,SK-MEL-28,> 100 µM (inactive)
same,GI50,MCF7,> 100 µM (inactive)
same,GI50,HOP-62,> 100 µM (inactive)
same,GI50,OVCAR-3,> 100 µM (inactive)
same,GI50,ACHN,> 100 µM (inactive)
same,GI50,786-0,> 100 µM (inactive)
same,GI50,SF-268,> 100 µM (inactive)
same,GI50,U-251,> 100 µM (inactive)
same,GI50,SF-539,> 100 µM (inactive)
same,GI50,HCC 2998,> 100 µM (inactive)
same,GI50,TK-10,49 µM (inactive)
same,GI50,A498,69 µM (inactive)
same,GI50,T47D,> 100 µM (inactive)
same,GI50,KM12,> 100 µM (inactive)
same,GI50,CAKI-1,24.1 µM (inactive)
same,GI50,NCI-H23,> 100 µM (inactive)
same,GI50,NCI/ADR-RES,> 100 µM (inactive)
same,GI50,RPMI-8226,53 µM (inactive)
same,GI50,OVCAR-5,> 100 µM (inactive)
same,GI50,NCI-H226,> 100 µM (inactive)
same,GI50,SK-MEL-5,> 100 µM (inactive)
same,GI50,EKVX,> 100 µM (inactive)
same,GI50,SN12C,> 100 µM (inactive)
same,GI50,OVCAR-8,> 100 µM (inactive)
same,GI50,HL-60,> 100 µM (inactive)
same,GI50,IGROV-1,> 100 µM (inactive)
same,GI50,SR,> 100 µM (inactive)
same,GI50,RXF 393,34 µM (inactive)
same,GI50,NCI-H460,18.6 µM (inactive)
same,GI50,NCI-H522,> 100 µM (inactive)
same,GI50,SK-OV-3,> 100 µM (inactive)
same,GI50,MDA-MB-231,> 100 µM (inactive)
same,GI50,UACC-62,> 100 µM (inactive)
same,GI50,COLO 205,> 100 µM (inactive)
